Data from patent US20250152616A1, “COMPOSITIONS FOR AND METHODS OF TREATING, PREVENTING, AND/OR MITIGATING PAIN” (Duke University, priority 2022, published 2025).

Columns and labels:
dissociated DRG neurons = experiment: FluoVolt membrane potential imaging of dissociated DRG neurons; format: cell-based, mouse; settings: 1 day NGF followed by adenosine treatment; capsaicin stimulation
From the text: DRG were isolated from mice using a modified version of the previously described protocol (Perner C, et al. (2021) STAR Protoc. 2:100333). Briefly, mice were euthanized and dosed in 70% ethanol to prevent fur contamination. Mice were positioned prone, and an incision was made along the spine from the neck to the base of the tail. Under a dissecting microscope, the surrounding soft tissue of the spinal column was removed from the dorsal side by Friedman-Pearson Rongeurs (Fine Science Tools, Foster City, CA, Cat #16021-14) from the mid thoracic region to the lumbosacral joint. The vertebral bone surrounding the DRG was gently crushed and removed with rongeurs exposing the spinal cord. The DRG were carefully extracted near the foramen between the vertebral levels. L3 and L4 DRG were collected for analyses. Dissected DRG were placed directly into ice-cold DMEM-F12 medium (ThermoFisher, Cat #11320033) for in vitro culture, Trizol (ThermoFisher, Cat #15596018) for PCR analyses, or 4% PFA for histology. For cell culture experiments, collected DRG were digested in digestion solution comprised of collagenase type II (Worthington, Lakewood, NJ, Cat #LS004176) and dispase (1.5 mg/mL each) dissolved in DMEM/F12. […]
DRG neuron potential changes were evaluated with FluoVolt, a voltage sensitive indicator dye (ThermoFisher, Cat #F10488). […]

[1] = system: bone marrow mesenchymal stromal cells (BM-MSCs); experiment: RT-qPCR of osteogenic genes in bone marrow MSCs; format: cell-based, mouse; settings: adenosine 30 μg/mL, 14 days, absence of osteogenic induction medium
Method: MSCs were isolated as previously described with some modifications (Shih Y B, et al. (2019) Sci Adv. 5:eaax1387). Briefly, the femurs, tibiae, vertebrae of mice were harvested, crushed with pestle and mortar in harvest buffer (1% v/v FBS in PBS) to release bone marrow (BM) tissue, filtered through a 40-μm cell strainer, and centrifuged at 200 rcf. Cells were seeded in a 24-well plate at a cell density of 1 million cells/cm^2 in growth media (GM) containing α-MEM, FBS (10% v/v, ThermoFisher, Cat #16000044), penicillin/streptomycin (10000 U/mL; 1% v/v) and cultured in humidified incubator (37° C., 5% CO2). The medium was replaced after 3 days and further cultured for 6 days before passage. For passaging, cells were incubated in 0.25% trypsin-EDTA for 2 min at 37° C., detached with a cell scraper, neutralized by using GM, centrifuged, and sub-cultured at a density of 8000 cells/cm^2. All experiments were performed between 1-2 passage. Osteogenic medium (OM) was prepared by supplementing GM with 10 mM β-glycerophosphate (MilliporeSigma, Cat #G9422), 50 μM ascorbic acid-2-phosphate (MilliporeSigma, Cat #A8960), and 100 nM dexamethasone (MilliporeSigma, Cat #D4902).
Cells, DRG, or bone/marrow tissues were analyzed for gene expression by quantitative real-time polymerase chain reaction (RT-qPCR). Nucleic acids were extracted with TRIzol, phase-separated with chloroform, and precipitated in isopropanol. […] Quantitative PCR was performed with iTaq Universal SYBR green reagent (Bio-Rad, Cat #1725124) with denaturation at 95° C. for 30 sec for one cycle, and amplification (denaturation+annealing/extension) at 95° C. for 5 sec and 60° C. for 30 sec for 40 cycles on a polymerase chain reaction (PCR) cycler (Bio-Rad, CFX96 Touch). […]
The expression level of each target gene was normalized to the housekeeping gene and to their respective controls and presented as fold change expressed as 2^−ΔΔCt values. […]

Q: Which “NGF-induced increase in membrane potential (FluoVolt)” value (dissociated DRG neurons) does the source give for `Nc1ncnc2c1ncn2[C@@H]1O[C@H](CO)[C@@H](O)[C@H]1O` [adenosine] here?
A: attenuated

Q: What about the Ibsp gene expression [1] of the same compound?
A: upregulated

Q: What about the Runx2 gene expression [1] of the same compound?
A: upregulated

Q: And the Sp7 gene expression [1]?
A: upregulated
